Reference: PMC11044151, “Development of Half-Sandwich Ru, Os, Rh, and Ir Complexes Bearing the Pyridine-2-ylmethanimine Bidentate Ligand Derived from 7-Chloroquinazolin-4(3H)-one with Enhanced Antiproliferative Activity” (ACS Omega, 2024)

Columns and labels:
A549 = assay: Neutral red uptake antiproliferative assay, A549; details: Homo sapiens, A549, 72 h, read-out: IC50 A549
From the text: (§1) To assess the impact of conjugating half-sandwich complexes with amines 1 via an imine-pyridine ligand on biological activity, we examined the antiproliferative potential of (R)- and (S)-1 and organometallic conjugates 3a–d and 4a–d in selected human cancer cell lines: alveolar basal epithelial cell adenocarcinoma (A549), colorectal adenocarcinomas (Colo205 and SW620), colorectal carcinoma (HCT116), hepatocellular carcinoma (HepG2), and breast adenocarcinoma (MCF7). The choice of cell lines was dictated by results of previously published clinical trials on ispinesib.[49],[50]
(§2) Cell lines used in this study were purchased from the American Type Culture Collection via LGC Standards. Human normal lung fibroblasts (MRC-5), alveolar basal epithelial cell adenocarcinoma (A549), colorectal adenocarcinoma (Colo205), hepatocellular carcinoma (HepG2), breast adenocarcinoma (MCF7), and colorectal adenocarcinoma (SW620) and its MDR variants[55] were cultured in standard conditions (37 °C, 5% CO2, 100% relative humidity) in high glucose DMEM medium supplemented with GlutaMax, HEPES (ThermoFisher Scientific) and 10% fetal bovine serum (EURx, Poland). All cell lines were tested for Mycoplasma contamination using a MycoProbe mycoplasma detection kit (R&D System).
(§3) For this purpose, neutral red uptake assay was performed. 10^4 of cells were seeded per well of a 96-well plate and left overnight to allow cells to attach to the surface. Then, the cells were exposed to a desired concentration of tested compounds. Stock solutions were prepared in DMSO and were used immediately after preparation. The final concentration of DMSO was constant and nontoxic (0.1% v/v). After 70 h of culture, neutral red was added to the final concentration of 1 mM. After 2 h of incubation with the dye, the medium was aspirated and cells were washed with ice-cold PBS. The dye was released using 100 μL of the solubilizer (1% acetic acid in 50% ethanol) on an orbital shaker (10 min). The absorbance at 540 nm was measured using an EnVision multilabel plate reader (PerkinElmer). […] The IC90 and IC50 parameters were calculated using GraphPad Prism v9 software using the five-parameter nonlinear logistic regression model.

SW620 cells = assay: Cell cycle distribution by flow cytometry, SW620; assay type: cell-based, human; details: concentration equal to IC75 of (S)-1 / (R)-1, mean ± SEM, n = 3; for Cell cycle fraction G1, 24 h / Cell cycle fraction G2/M, 24 h / Cell cycle fraction S, 24 h: SW620, 24 h; for Cell cycle fraction G1, 48 h / Cell cycle fraction G2/M, 48 h / Cell cycle fraction S, 48 h: SW620, 48 h
Protocol: Ispinesib leads to the formation of monopolar mitotic spindles and a blockade of chromosome segregation in cancer cells. Using flow cytometry, we assessed the cell cycle distribution in the SW620 and SW620E cells exposed to the studied compounds for 24 and 48 h. […] Both complexes, 3c and 3d, decrease the percentage of cells in the G1/G0 phase and increase the percentage in the S and G2/M phases. […] Furthermore, prolonged exposure to the compounds increases the percentage of cells in the G2/M phase, with the most intensive effect observed for 3c and 3d.
SW620 and SW620E cells lines (vulnerable and resistant variants, respectively) were seeded in 6-well plates at a density of 10^5 cells per well. […] After 24 h, the cells were trypsinized and fixed with ice-cold 70% v/v ethanol. The cells were stained with 75 μM propidium iodide with 50 Kunitz units of RNase A in PBS for 30 min at 37 °C. All samples were analyzed using a LSRII flow cytometer (Becton Dickinson) at a PE channel ([…]). Cell cycle phase distribution was determined using a built-in cell cycle module (Watson pragmatic algorithm) by FlowJo 7.6.1 software.

SW620 = assay: Neutral red uptake antiproliferative assay, SW620; assay type: cell-based, human; details: Homo sapiens, SW-620; exposure time 72 h, n = 3; 95% CI given
From the text: as §1, §2, §3

SW620V = assay: Neutral red uptake antiproliferative assay, MDR line SW620V; assay type: cell-based, human; details: Homo sapiens; exposure time 72 h, n = 3; ABCB1-overexpressing MDR line
From the text: (§4) Next, we evaluated the cytotoxicity of the synthesized complexes toward the panel of six multidrug-resistant (MDR) cell lines derived from SW620 and characterized by the overexpression of various ABC proteins, namely, ABCG2 (SW620C and SW620Mito), ABCC1 (SW620M and SW620E), and ABCB1 (SW620D, SW620E, and SW620V) (Table 3, Figures S29 and S32). […] The activity of the complexes derived from the ligand (S)-2 is also considerably higher than that of the compounds containing the ligand (R)-2. The cytotoxicity of both rhodium 4c and iridium 4d complexes is higher than that of amine (S)-1. In the case of 4c, the increase in cytotoxicity is low, with the highest value of 3.7-fold for the SW620Mito line. […] Compound 4d also exerts a 2.1- and 2.6-fold higher cytotoxicity than […] against the SW620C and SW620D lines.
(§5) For this purpose, neutral red uptake assay was performed. […] The results were presented as a percentage of control.

SW620C = assay: Neutral red uptake antiproliferative assay, MDR line SW620C; assay type: cell-based, human; details: Homo sapiens; exposure time 72 h, n = 3; ABCG2-overexpressing MDR line
From the text: as §4, §5

SW620Mito = assay: Neutral red uptake antiproliferative assay, MDR line SW620Mito; assay type: cell-based, human; details: Homo sapiens; exposure time 72 h, n = 3; ABCG2-overexpressing MDR line
From the text: as §4, §5

HCT116 = assay: cells; details: Homo sapiens, HCT-116, 72 h, read-out: IC50 HCT116
From the text: as §1, §3

SW620D = assay: Neutral red uptake antiproliferative assay, MDR line SW620D; assay type: cell-based, human; details: Homo sapiens; exposure time 72 h, n = 3; ABCB1-overexpressing MDR line
From the text: as §4, §5

SW620M = assay: Neutral red uptake antiproliferative assay, MDR line SW620M; assay type: cell-based, human; details: Homo sapiens; exposure time 72 h, n = 3; ABCC1-overexpressing MDR line
From the text: as §4, §5

SW620E = assay: Neutral red uptake antiproliferative assay, MDR line SW620E; assay type: cell-based, human; details: Homo sapiens; exposure time 72 h, n = 3; ABCC1- and ABCB1-overexpressing MDR line
From the text: as §4, §5

Colo205 = assay: cells; details: Homo sapiens, COLO 205, 72 h, read-out: IC50 Colo205
From the text: as §1, §2, §3

MCF7 = assay: cells; details: Homo sapiens, MCF7, 72 h, read-out: IC50 MCF7
From the text: as §1, §2, §3

HepG2 = assay: cells; details: Homo sapiens, HepG2, 72 h, read-out: IC50 HepG2
From the text: as §1, §2, §3

KSP = target: T1, KSP (Homo sapiens, UniProt P52732); assay: Kinesin ATPase inhibition (ATP hydrolysis) end-point assay; assay type: biochemical; details: 100 nM stated for ispinesib and (R)-1; concentration not restated for the complexes
T1 construct: purchased Cytoskeleton, Inc
T1 sequence (P52732 1-368 limits assumed): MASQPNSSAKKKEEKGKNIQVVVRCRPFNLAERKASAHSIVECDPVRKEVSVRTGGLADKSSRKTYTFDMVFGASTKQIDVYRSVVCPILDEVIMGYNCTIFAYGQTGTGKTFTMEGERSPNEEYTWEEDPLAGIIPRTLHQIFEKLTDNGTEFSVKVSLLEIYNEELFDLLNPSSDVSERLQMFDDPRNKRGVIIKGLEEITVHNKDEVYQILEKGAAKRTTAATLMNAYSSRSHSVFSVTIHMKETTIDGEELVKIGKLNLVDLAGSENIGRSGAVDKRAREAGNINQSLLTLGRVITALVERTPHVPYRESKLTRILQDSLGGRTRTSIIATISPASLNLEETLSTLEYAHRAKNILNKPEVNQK
Protocol: The mechanism of the anticancer activity of ispinesib is related to the inhibition of the activity of the KSP. Thus, we studied the synthesized compounds’ ability to inhibit KSP activity using the adenosine 5′-triphosphate (ATP) hydrolysis assay.
The potential kinesin modulatory activity of tested compounds was performed using a Kinesin ATPase end-point biochem kit (Cytoskeleton, Inc.). […] The experiment was performed according to the manufacturer’s instructions. One μg of tested kinesin (KSP) was used per reaction. Phosphate release was measured at the absorbance 650 nm using an EnVision multilabel plate reader (PerkinElmer).

| IC50 (A549) | IC50 (SW620) | IC50 (SW620V) | IC50 (SW620C) | IC50 (SW620Mito) | IC50 (HCT116) | IC50 (SW620D) | IC50 (SW620M) | IC50 (SW620E) | IC50 (Colo205) | IC50 (MCF7) | IC50 (HepG2) | Compound | Cell cycle fraction G1, 24 h (SW620 cells) | Cell cycle fraction G2/M, 24 h (SW620 cells) | Cell cycle fraction S, 24 h (SW620 cells) | Cell cycle fraction G1, 48 h (SW620 cells) | Cell cycle fraction G2/M, 48 h (SW620 cells) | Cell cycle fraction S, 48 h (SW620 cells) | KSP residual activity (KSP) |
| --- | --- | --- | --- | --- | --- | --- | --- | --- | --- | --- | --- | --- | --- | --- | --- | --- | --- | --- | --- |
| 7050 nM | 2870 nM | 3440 nM | 3330 nM | 3910 nM | 8060 nM | 4150 nM | 3460 nM | 4050 nM | 6070 nM | 3910 nM | 2400 nM | CC(C)[C@H](N)c1nc2cc(Cl)ccc2c(=O)n1Cc1ccccc1 [(S)-1, reference compound] | 41.8 ± 1.2% | 37.1 ± 1.2% | 19.5 ± 0.3% | 35.2 ± 1.1% | 42.5 ± 0.6% | 19.9 ± 0.4% |  |
| 2210 nM | 96 nM | 206 nM | 721 nM | 261 nM | 346 nM | 1120 nM | 241 nM | 835 nM | 107 nM | 231 nM | 566 nM | CC(C)[C@@H](N)c1nc2cc(Cl)ccc2c(=O)n1Cc1ccccc1 [(R)-1, reference compound] | 45.4 ± 1.0% | 36.6 ± 2.2% | 17.2 ± 1.3% | 36.2 ± 1.4% | 42.1 ± 0.4% | 19.0 ± 0.6% | about 35% |
|  |  |  |  |  |  |  |  |  |  |  |  | Cc1ccc(C(=O)N(CCCN)[C@@H](c2nc3cc(Cl)ccc3c(=O)n2Cc2ccccc2)C(C)C)cc1 [ispinesib, reference compound] |  |  |  |  |  |  | 2.2% |
